Patent US20250345277A1, “Ionizable Liposome, Preparation Thereof, and Application Thereof in Gene Delivery” (MAXIRNA (ZHEJIANG) TECHNOLOGY CO. LTD., priority 2021, published 2025)

Assays:
[1] = Size and polydispersity index PDI of lipid nanoparticles (Malvern Zetasizer Nano ZS); assay type: physicochemical; conditions: LNP ionizable lipid/DOPE/cholesterol/DSPE-PEG2000 35/16/46.5/2.5 mol% encapsulating EGFP mRNA; for Particle Size: in nm (unit assumed)
Procedure: (§1) The ionizable lipid compound of Example 1 was dissolved in ethanol with DOPE, cholesterol and DSPE-PEG2000 (all purchased from AVT (Shanghai) Pharmaceutical Technology Co., Ltd.) at a molar ratio of 35:16:46.5:2.5 to prepare ethanol lipid solution, and enhanced green fluorescent protein (EGFP) mRNAs (Shanghai Maximna Pharmaceutical Engineering Co., Ltd., JN-4201) were diluted in 20 mM citrate buffer (pH=6.1) to obtain mRNA aqueous solution. Ethanol lipid solution and mRNA aqueous solution were mixed at a volume ratio of 1:3 by using a microfluidic device (Micro&Nano (Shanghai) Instrument Technology Co., Ltd., model: INano™ML), LNPs were prepared with a weight ratio of approximately 10:1 between total lipids and mRNAs. The medium was replaced by ultrafiltration, ethanol was removed and volumed with DPBS. Finally, the lipid nanoparticles were filtered through a 0.2 μm sterile filter to obtain a LNP formulation encapsulating eGFP mRNA using ionizable lipid/DOPE/cholesterol/DSPE-PEG2000 (35/16/46.5/2.5 mol %), the concentration of mRNAs being 0.002 mg/mL-0.5 mg/mL.
Using Malvern Zetasizer Nano ZS (Malvern UK), the size and polydispersity index PDI of lipid nanoparticles were measured at […].

[2] = Entrapment efficiency of LNP preparation encapsulating EGFP mRNA; assay type: physicochemical; conditions: LNP ionizable lipid/DOPE/cholesterol/DSPE-PEG2000 35/16/46.5/2.5 mol% encapsulating EGFP mRNA
Procedure: as §1, with “mg/mL. […]” for “mg/mL.”

DC2.4 cells = assay: In vitro transfection of DC2.4 cells with EGFP mRNA LNP preparation (flow cytometry); assay type: cell-based, mouse; conditions: DC2.4 cells; for Cell Viability / Positive Rate (EGFP): EGFP mRNA LNP, 200 ng mRNA per well, flow cytometry; for Fluorescence Intensity: EGFP mRNA expression level, normalized based on the sample with the highest fluorescence intensity
From the text: The description is based on peripheral blood mononuclear cells PBMC (Shanghai Oribiotech Co., Ltd.), human peripheral blood leukemia T cell Jurkat (ATCC), tumor infiltrating lymphocyte TIL (isolated from resected tumor tissue of a liver cancer patient, the preparation method refers to CN114763530A), mouse bone marrow-derived dendritic cells DC2.4 (Cell Bank of the Chinese Academy of Sciences), and Chinese hamster ovary cells CHO (ATCC) were used as verified cell lines for liposome transfection. PBMC, Jurkat, and TIL cells grew in suspension, while DC2.4 and CHO cells grew by adherent culture. All the operation steps of cell culture must strictly abide by the prescribed procedures, and sterile reagents is used to perform aseptic operations under a sterile workbench. The main steps are as follows: • 1) Cell recovery: the preserved cell cryopreservation solution was taken out of the −80° C. refrigerator, and was immediately put in a 37° C. water bath for rapid and continuous shaking, and was completely melted within one minute. Fresh medium was added to the 15 mL centrifuge tube in advance, and the cell solution was added to the centrifuge tube in a biological safety cabinet. A centrifuge tube of the same quality was taken and placed symmetrically in a centrifuge, centrifuged at a low speed at 1200 rpm for 5 min. After centrifugation, the supernatant was removed, and an appropriate amount of medium was slowly added along the tube wall. After the cells were evenly dispersed by blowing gently, the cell suspension was pipette and added to the culture bottle prepared in advance. The state and distribution of the cells in the early stage of recovery were observed under a microscope. The culture bottle was placed in a 5% CO2 incubator and incubated at 37° C., and the recovery time was recorded. • 2) Cell subculture: Under the microscope, if the cell density in the field of view reaches 80%-90%, the cells can be subcultured. Adherent cells need to be digested with trypsin. In order to avoid the residual serum in the culture medium to reduce the activity of trypsin, DPBS solution was added to wash once after removing the original culture medium. After remove the DPBS solution, trypsin was added to degrade the protein at the junction between cells. This separates the cells for further culture. The cells were gently shaked evenly and put into the incubator for digestion for 2 min. Immediately after the digestion was completed, an appropriate amount of medium was added to the original petri dish to terminate the digestion. Finally, the cells were carefully blowed off using a pipette and blowed until they are evenly dispersed, and then inoculated and subcultured at a certain ratio according to the experimental requirements. […]
• 1) DC2.4 cells recovery: the frozen DC2.4 cells were taken out from the −80° C. refrigerator, put in a 37° C. water bath to quickly thaw the cells, added to the preheated medium after thawing, centrifuged at 1200 rpm for 5 min, the supernatant was discarded, and an appropriate amount of DMEM medium with 10% FBS was added to resuspend the recovered DC2.4, and placed in a 5% CO2 incubator at 37° C. for activation and culture. • 2) According to the experimental arrangement, DC2.4 cells were plated on a 24-well plate one day in advance for cell transfection. Through cell counting, the number of cells and cell viability were recorded, the cell suspension were taken at 2×10^5 cells per well, then a certain volume of DMEM medium containing 10% FBS was added and mixed evenly, 1 mL of mixture was added to each well for subsequent transfection experiment. • 3) After 24 hours, the medium was gently removed 30 minutes in advance by a pipette, 1 mL DPBS was added to each well for washing and then removed, then 300 μL serum-free Opti-MEM medium was added to each well for subsequent transfection experiments.
Subsequent steps are the same as the transfection protocol for PBMC cells. […]

CCCCCCCCCCC(O)CN(CCN(CCN1CCN(C)CC1)CCN(CC(O)CCCCCCCCCC)CC(O)CCCCCCCCCC)CC(O)CCCCCCCCCC (stereo not drawn) [E-C12]
PDI [1]: 0.133 | Particle Size [1]: 96.9 | Entrapment Efficiency [2]: 95.02% | Cell Viability (DC2.4 cells): 84.8% | Positive Rate (EGFP) (DC2.4 cells): 56.4% | Fluorescence Intensity (DC2.4 cells): 0.69

CCCCCCCCCCCCCCC(O)CN(CCN(CCN1CCN(C)CC1)CCN(CC(O)CCCCCCCCCCCCCC)CC(O)CCCCCCCCCCCCCC)CC(O)CCCCCCCCCCCCCC (stereo not drawn) [E-C16]
PDI [1]: 0.107 | Particle Size [1]: 76.9 | Entrapment Efficiency [2]: 91.51% | Cell Viability (DC2.4 cells): 94.4% | Positive Rate (EGFP) (DC2.4 cells): 59.9% | Fluorescence Intensity (DC2.4 cells): 0.71

CCCCCCCCCCC(O)CN(CCOCCN(CCOCCN(CC(O)CCCCCCCCCC)CC(O)CCCCCCCCCC)CCN1CCN(C)CC1)CC(O)CCCCCCCCCC (stereo not drawn) [F-C12]
PDI [1]: 0.133 | Particle Size [1]: 77.7 | Entrapment Efficiency [2]: 92.31% | Cell Viability (DC2.4 cells): 87.1% | Positive Rate (EGFP) (DC2.4 cells): 63.9% | Fluorescence Intensity (DC2.4 cells): 0.28

CCCCCCCCCCCCCCC(O)CN(CCOCCN(CCOCCN(CC(O)CCCCCCCCCCCCCC)CC(O)CCCCCCCCCCCCCC)CCN1CCN(C)CC1)CC(O)CCCCCCCCCCCCCC (stereo not drawn) [F-C16]
PDI [1]: 0.099 | Particle Size [1]: 91.9 | Entrapment Efficiency [2]: 92.39% | Cell Viability (DC2.4 cells): 96.8% | Positive Rate (EGFP) (DC2.4 cells): 60.3% | Fluorescence Intensity (DC2.4 cells): 0.17

CCCCCCCCCCCCCCCCC(O)CN(CCOCCN(CCOCCN(CC(O)CCCCCCCCCCCCCCCC)CC(O)CCCCCCCCCCCCCCCC)CCN1CCN(C)CC1)CC(O)CCCCCCCCCCCCCCCC (stereo not drawn) [F-C18]
PDI [1]: 0.081 | Particle Size [1]: 77.2 | Entrapment Efficiency [2]: 80.61% | Cell Viability (DC2.4 cells): 93.5% | Positive Rate (EGFP) (DC2.4 cells): 61.5% | Fluorescence Intensity (DC2.4 cells): 0.67

CCCCCCCCCCC(O)CN(CCOCCOCCN(CCOCCOCCN(CC(O)CCCCCCCCCC)CC(O)CCCCCCCCCC)CCN1CCN(C)CC1)CC(O)CCCCCCCCCC (stereo not drawn) [G-C12]
PDI [1]: 0.172 | Particle Size [1]: 89.3 | Entrapment Efficiency [2]: 89.95% | Cell Viability (DC2.4 cells): 92.9% | Positive Rate (EGFP) (DC2.4 cells): 83.1% | Fluorescence Intensity (DC2.4 cells): 0.29

CCCCCCCCCCCCCCC(O)CN(CCOCCOCCN(CCOCCOCCN(CC(O)CCCCCCCCCCCCCC)CC(O)CCCCCCCCCCCCCC)CCN1CCN(C)CC1)CC(O)CCCCCCCCCCCCCC (stereo not drawn) [G-C16]
PDI [1]: 0.102 | Particle Size [1]: 78.2 | Entrapment Efficiency [2]: 85.40% | Cell Viability (DC2.4 cells): 94.5% | Positive Rate (EGFP) (DC2.4 cells): 79.6% | Fluorescence Intensity (DC2.4 cells): 0.54

CCCCCCCCCCCCCCCCC(O)CN(CCOCCOCCN(CCOCCOCCN(CC(O)CCCCCCCCCCCCCCCC)CC(O)CCCCCCCCCCCCCCCC)CCN1CCN(C)CC1)CC(O)CCCCCCCCCCCCCCCC (stereo not drawn) [G-C18]
PDI [1]: 0.195 | Particle Size [1]: 99.8 | Entrapment Efficiency [2]: 80.79% | Cell Viability (DC2.4 cells): 95.2% | Positive Rate (EGFP) (DC2.4 cells): 63.9% | Fluorescence Intensity (DC2.4 cells): 0.63

CCCCCCCCCCC(O)CN(CCOCCOCCOCCN(CCOCCOCCOCCN(CC(O)CCCCCCCCCC)CC(O)CCCCCCCCCC)CCN1CCN(C)CC1)CC(O)CCCCCCCCCC (stereo not drawn) [H-C12]
PDI [1]: 0.136 | Particle Size [1]: 95.9 | Entrapment Efficiency [2]: 94.13% | Cell Viability (DC2.4 cells): 86.0% | Positive Rate (EGFP) (DC2.4 cells): 74.3% | Fluorescence Intensity (DC2.4 cells): 0.78

CCCCCCCCCCCCCCC(O)CN(CCOCCOCCOCCN(CCOCCOCCOCCN(CC(O)CCCCCCCCCCCCCC)CC(O)CCCCCCCCCCCCCC)CCN1CCN(C)CC1)CC(O)CCCCCCCCCCCCCC (stereo not drawn) [H-C16]
PDI [1]: 0.162 | Particle Size [1]: 95.5 | Entrapment Efficiency [2]: 86.56% | Cell Viability (DC2.4 cells): >99.0% | Positive Rate (EGFP) (DC2.4 cells): 59.0% | Fluorescence Intensity (DC2.4 cells): 0.77

CCCCCCCCCCCCCCCCC(O)CN(CCOCCOCCOCCN(CCOCCOCCOCCN(CC(O)CCCCCCCCCCCCCCCC)CC(O)CCCCCCCCCCCCCCCC)CCN1CCN(C)CC1)CC(O)CCCCCCCCCCCCCCCC (stereo not drawn) [H-C18]
PDI [1]: 0.143 | Particle Size [1]: 73.8 | Entrapment Efficiency [2]: 80.61% | Cell Viability (DC2.4 cells): 97.4% | Positive Rate (EGFP) (DC2.4 cells): 81.9% | Fluorescence Intensity (DC2.4 cells): 0.38

CCCCCCCCCCC(O)CN(CCN(CCN1CCN(CCO)CC1)CCN(CC(O)CCCCCCCCCC)CC(O)CCCCCCCCCC)CC(O)CCCCCCCCCC (stereo not drawn) [I-C12]
PDI [1]: 0.114 | Particle Size [1]: 83.8 | Entrapment Efficiency [2]: 88.38% | Cell Viability (DC2.4 cells): 98.5% | Positive Rate (EGFP) (DC2.4 cells): 63.9% | Fluorescence Intensity (DC2.4 cells): 0.05

CCCCCCCCCCCCC(O)CN(CCN(CCN1CCN(CCO)CC1)CCN(CC(O)CCCCCCCCCCCC)CC(O)CCCCCCCCCCCC)CC(O)CCCCCCCCCCCC (stereo not drawn) [I-C14]
PDI [1]: 0.180 | Particle Size [1]: 120.3 | Entrapment Efficiency [2]: 87.59% | Cell Viability (DC2.4 cells): 97.0% | Positive Rate (EGFP) (DC2.4 cells): 62.7% | Fluorescence Intensity (DC2.4 cells): 0.05

CCCCCCCCCCCCCCC(O)CN(CCN(CCN1CCN(CCO)CC1)CCN(CC(O)CCCCCCCCCCCCCC)CC(O)CCCCCCCCCCCCCC)CC(O)CCCCCCCCCCCCCC (stereo not drawn) [I-C16]
PDI [1]: 0.147 | Particle Size [1]: 96.3 | Entrapment Efficiency [2]: 91.60% | Cell Viability (DC2.4 cells): 81.3% | Positive Rate (EGFP) (DC2.4 cells): 68.7% | Fluorescence Intensity (DC2.4 cells): 0.06

CCCCCCCCCCCCCCCCC(O)CN(CCN(CCN1CCN(CCO)CC1)CCN(CC(O)CCCCCCCCCCCCCCCC)CC(O)CCCCCCCCCCCCCCCC)CC(O)CCCCCCCCCCCCCCCC (stereo not drawn) [I-C18]
PDI [1]: 0.109 | Particle Size [1]: 72.3 | Entrapment Efficiency [2]: 83.06% | Cell Viability (DC2.4 cells): 86.0% | Positive Rate (EGFP) (DC2.4 cells): 66.4% | Fluorescence Intensity (DC2.4 cells): 0.04

CCCCCCCCCCC(O)CN(CCOCCN(CCOCCN(CC(O)CCCCCCCCCC)CC(O)CCCCCCCCCC)CCN1CCN(CCO)CC1)CC(O)CCCCCCCCCC (stereo not drawn) [J-C12]
PDI [1]: 0.105 | Particle Size [1]: 99.7 | Entrapment Efficiency [2]: 92.88% | Cell Viability (DC2.4 cells): 81.8% | Positive Rate (EGFP) (DC2.4 cells): 62.6% | Fluorescence Intensity (DC2.4 cells): 0.04
